From ChEMBL document CHEMBL5537145, “Design, synthesis and evaluation of novel UDCA-aminopyrimidine hybrids as ATX inhibitors for the treatment of hepatic and pulmonary fibrosis” (Eur J Med Chem, 2024)
Blank lines part the entries; values can stand above or below the compound they belong to. The source made the active and inactive calls. The calls are words filed in the database; no cut-off is given here.

Key:
Autotaxin [1] = target: T1, Autotaxin (Homo sapiens, UniProt Q13822); assay: Inhibition of human ATX in using LPC as substrate by fluorescence based microplate reader assay
Autotaxin [2] = target: T1, Autotaxin; assay: Potency index, ratio of GLPG-1690 IC50 to test compound IC50 for inhibition of human ATX in using LPC as substrate by fluorescence based microplate reader assay
LX-2 [3] = assay: Cytotoxicity against human LX2 cells assessed as reduction in cell viability at 2.5 to 80 uM incubated for 48 hrs by MTT assay; format: toxicity, cell-based; conditions: lx-2, 48 h, dose 2.5-80 µM
CCC-HPF-1 [4] = assay: Cytotoxicity against human CCC-HPF-1 cells assessed as reduction in cell viability at 2.5 to 80 uM incubated for 48 hrs by MTT assay; format: toxicity, cell-based; conditions: ccc-hpf-1, 48 h, dose 2.5-80 µM
LX-2 [5] = assay: Anti-hepatic fibrosis activity against TGF-beta1 stimulated human LX2 cells assessed as reduction in alpha-SMA mRNA expression level at 5 to 20 uM incubated for 48 hrs by quantitative real-time PCR analysis; format: functional, cell-based; conditions: dose 5-20 µM
LX-2 [6] = assay: Anti-hepatic fibrosis activity against TGF-beta1 stimulated human LX2 cells assessed as reduction in COL1A1 mRNA expression level at 5 to 20 uM incubated for 48 hrs by quantitative real-time PCR analysis; format: functional, cell-based; conditions: dose 5-20 µM
LX-2 [7] = assay: Anti-hepatic fibrosis activity against TGF-beta1 stimulated human LX2 cells assessed as reduction in FN mRNA expression level at 5 to 20 uM incubated for 48 hrs by quantitative real-time PCR analysis; format: functional, cell-based; conditions: dose 5-20 µM
CCC-HPF-1 [8] = assay: Anti-pulmonary fibrosis activity against TGF-beta1 stimulated human CCC-HPF-1 cells assessed as reduction in alpha-SMA mRNA expression level at 5 to 20 uM incubated for 48 hrs by quantitative real-time PCR analysis; format: functional, cell-based; conditions: dose 5-20 µM
CCC-HPF-1 [9] = assay: Anti-pulmonary fibrosis activity against TGF-beta1 stimulated human CCC-HPF-1 cells assessed as reduction in COL1A1 mRNA expression level at 5 to 20 uM incubated for 48 hrs by quantitative real-time PCR analysis; format: functional, cell-based; conditions: dose 5-20 µM
CCC-HPF-1 [10] = assay: Anti-pulmonary fibrosis activity against TGF-beta1 stimulated human CCC-HPF-1 cells assessed as reduction in FN mRNA expression level at 5 to 20 uM incubated for 48 hrs by quantitative real-time PCR analysis; format: functional, cell-based; conditions: dose 5-20 µM
LX-2 [11] = assay: Anti-hepatic fibrosis activity against TGF-beta1 stimulated human LX2 cells assessed as reduction in alpha-SMA protein expression level at 5 to 20 uM incubated for 48 hrs by Western blotting analysis; format: functional, cell-based; conditions: dose 5-20 µM
LX-2 [12] = assay: Anti-hepatic fibrosis activity against TGF-beta1 stimulated human LX2 cells assessed as reduction in COL1A1 protein expression level at 5 to 20 uM incubated for 48 hrs by Western blotting analysis; format: functional, cell-based; conditions: dose 5-20 µM
LX-2 [13] = assay: Anti-hepatic fibrosis activity against TGF-beta1 stimulated human LX2 cells assessed as reduction in FN protein expression level at 5 to 20 uM incubated for 48 hrs by Western blotting analysis; format: functional, cell-based; conditions: dose 5-20 µM
CCC-HPF-1 [14] = assay: Anti-pulmonary fibrosis activity against TGF-beta1 stimulated human CCC-HPF-1 cells assessed as reduction in alpha-SMA protein expression level at 5 to 20 uM incubated for 48 hrs by Western blotting analysis; format: functional, cell-based; conditions: dose 5-20 µM
CCC-HPF-1 [15] = assay: Anti-pulmonary fibrosis activity against TGF-beta1 stimulated human CCC-HPF-1 cells assessed as reduction in COL1A1 protein expression level at 5 to 20 uM incubated for 48 hrs by Western blotting analysis; format: functional, cell-based; conditions: dose 5-20 µM
CCC-HPF-1 [16] = assay: Anti-pulmonary fibrosis activity against TGF-beta1 stimulated human CCC-HPF-1 cells assessed as reduction in FN protein expression level at 5 to 20 uM incubated for 48 hrs by Western blotting analysis; format: functional, cell-based; conditions: dose 5-20 µM
LX-2 [17] = assay: Anti-migratory activity against TGF-beta1 stimulated human LX2 cells at 10 uM incubated for 24 hrs by light microscopic analysis; format: functional, cell-based
CCC-HPF-1 [18] = assay: Anti-migratory activity against TGF-beta1 stimulated human CCC-HPF-1 cells at 10 uM incubated for 24 hrs by light microscopic analysis; format: functional, cell-based
LX-2 [19] = assay: Anti-hepatic fibrosis activity against TGF-beta1 stimulated human LX2 cells assessed as reduction in Smad2 phosphorylation incubated for 48 hrs by Western blotting analysis; format: functional, cell-based; conditions: dose 5-20 µM
LX-2 [20] = assay: Anti-hepatic fibrosis activity against TGF-beta1 stimulated human LX2 cells assessed as reduction in Smad3 phosphorylation incubated for 48 hrs by Western blotting analysis; format: functional, cell-based; conditions: dose 5-20 µM
CCC-HPF-1 [21] = assay: Anti-pulmonary fibrosis activity against TGF-beta1 stimulated human CCC-HPF-1 cells assessed as reduction in Smad2 phosphorylation incubated for 48 hrs by Western blotting analysis; format: functional, cell-based; conditions: dose 5-20 µM
CCC-HPF-1 [22] = assay: Anti-pulmonary fibrosis activity against TGF-beta1 stimulated human CCC-HPF-1 cells assessed as reduction in Smad3 phosphorylation incubated for 48 hrs by Western blotting analysis; format: functional, cell-based; conditions: dose 5-20 µM
LX-2 [23] = assay: Effect on total Smad2 level in TGF-beta1 stimulated human LX2 cells at 5 to 20 uM incubated for 48 hrs by Western blotting analysis; format: functional, cell-based; conditions: dose 5-20 µM
LX-2 [24] = assay: Effect on total Smad3 level in TGF-beta1 stimulated human LX2 cells at 5 to 20 uM incubated for 48 hrs by Western blotting analysis; format: functional, cell-based; conditions: dose 5-20 µM
CCC-HPF-1 [25] = assay: Effect on total Smad2 level in TGF-beta1 stimulated human CCC-HPF-1 cells at 5 to 20 uM incubated for 48 hrs by Western blotting analysis; format: functional, cell-based; conditions: dose 5-20 µM
CCC-HPF-1 [26] = assay: Effect on total Smad3 level in TGF-beta1 stimulated human CCC-HPF-1 cells at 5 to 20 uM incubated for 48 hrs by Western blotting analysis; format: functional, cell-based; conditions: dose 5-20 µM
LX-2 [27] = assay: Anti-hepatic fibrosis activity against TGF-beta1 stimulated human LX2 cells assessed as inhibition of Smad2/3 nuclear translocation at 10 uM incubated for 48 hrs by DAPI staining based immunofluorescence analysis; format: functional, cell-based
CCC-HPF-1 [28] = assay: Anti-pulmonary fibrosis activity against TGF-beta1 stimulated human CCC-HPF-1 cells assessed as inhibition of Smad2/3 nuclear translocation at 10 uM incubated for 48 hrs by DAPI staining based immunofluorescence analysis; format: functional, cell-based

IC50 (Autotaxin [1]): 0.165 µM
Compound: C[C@H](CCC(=O)N1CCc2nc(NCCCc3ccccc3)ncc2C1)[C@H]1CC[C@H]2[C@@H]3[C@@H](O)C[C@@H]4C[C@H](O)CC[C@]4(C)[C@H]3CC[C@]12C

IC50 (Autotaxin [1]): 0.00762 µM | Ratio IC50 (Autotaxin [2]): 9
Compound: C[C@H](CCC(=O)N1CCc2nc(NC3Cc4ccccc4C3)ncc2C1)[C@H]1CC[C@H]2[C@@H]3[C@@H](O)C[C@@H]4C[C@H](O)CC[C@]4(C)[C@H]3CC[C@]12C
Activity (LX-2 [3]): Non-Toxic | Activity (CCC-HPF-1 [4]): Non-Toxic | Activity (LX-2 [5]): Active | Activity (LX-2 [6]): Active | Activity (LX-2 [7]): Active | Activity (CCC-HPF-1 [8]): Active | Activity (CCC-HPF-1 [9]): Active | Activity (CCC-HPF-1 [10]): Active | Activity (LX-2 [11]): Active | Activity (LX-2 [12]): Active | Activity (LX-2 [13]): Active | Activity (CCC-HPF-1 [14]): Active | Activity (CCC-HPF-1 [15]): Active | Activity (CCC-HPF-1 [16]): Active | Activity (LX-2 [17]): Active | Activity (CCC-HPF-1 [18]): Active | Activity (LX-2 [19]): Dose-Dependent Effect | Activity (LX-2 [20]): Dose-Dependent Effect | Activity (CCC-HPF-1 [21]): Dose-Dependent Effect | Activity (CCC-HPF-1 [22]): Dose-Dependent Effect | Activity (LX-2 [23]): inactive | Activity (LX-2 [24]): inactive | Activity (CCC-HPF-1 [25]): inactive | Activity (CCC-HPF-1 [26]): inactive | Activity (LX-2 [27]): Active | Activity (CCC-HPF-1 [28]): Active

IC50 (Autotaxin [1]): 0.0402 µM
Compound: C[C@H](CCC(=O)N1CCc2nc(NCc3cc(Cl)cc(Cl)c3)ncc2C1)[C@H]1CC[C@H]2[C@@H]3[C@@H](O)C[C@@H]4C[C@H](O)CC[C@]4(C)[C@H]3CC[C@]12C

IC50 (Autotaxin [1]): 0.102 µM
Compound: C[C@H](CCC(=O)N1CCc2nc(NCCc3ccccc3Cl)ncc2C1)[C@H]1CC[C@H]2[C@@H]3[C@@H](O)C[C@@H]4C[C@H](O)CC[C@]4(C)[C@H]3CC[C@]12C

IC50 (Autotaxin [1]): 0.0414 µM
Compound: C[C@H](CCC(=O)N1CCc2nc(NCCc3cccc(F)c3)ncc2C1)[C@H]1CC[C@H]2[C@@H]3[C@@H](O)C[C@@H]4C[C@H](O)CC[C@]4(C)[C@H]3CC[C@]12C

Compound: C[C@H](CCC(=O)O)[C@H]1CC[C@H]2[C@@H]3[C@@H](O)C[C@@H]4C[C@H](O)CC[C@]4(C)[C@H]3CC[C@]12C [URSODIOL]
IC50 (Autotaxin [1]): 9.26 µM

IC50 (Autotaxin [1]): 0.335 µM
Compound: C[C@H](CCC(=O)N1CCc2nc(NCCc3c[nH]c4ccccc34)ncc2C1)[C@H]1CC[C@H]2[C@@H]3[C@@H](O)C[C@@H]4C[C@H](O)CC[C@]4(C)[C@H]3CC[C@]12C

IC50 (Autotaxin [1]): 0.0578 µM
Compound: C[C@H](CCC(=O)N1CCc2nc(NCCc3ccccc3)ncc2C1)[C@H]1CC[C@H]2[C@@H]3[C@@H](O)C[C@@H]4C[C@H](O)CC[C@]4(C)[C@H]3CC[C@]12C

IC50 (Autotaxin [1]): 0.168 µM
Compound: Cc1ccc(CCNc2ncc3c(n2)CCN(C(=O)CC[C@@H](C)[C@H]2CC[C@H]4[C@@H]5[C@@H](O)C[C@@H]6C[C@H](O)CC[C@]6(C)[C@H]5CC[C@]24C)C3)cc1

IC50 (Autotaxin [1]): 0.0439 µM
Compound: C[C@H](CCC(=O)N1CCc2nc(N3CCC(c4ccccc4)CC3)ncc2C1)[C@H]1CC[C@H]2[C@@H]3[C@@H](O)C[C@@H]4C[C@H](O)CC[C@]4(C)[C@H]3CC[C@]12C

IC50 (Autotaxin [1]): 0.165 µM
Compound: C[C@H](CCC(=O)N1CCc2nc(NCCc3cccc(Cl)c3)ncc2C1)[C@H]1CC[C@H]2[C@@H]3[C@@H](O)C[C@@H]4C[C@H](O)CC[C@]4(C)[C@H]3CC[C@]12C

IC50 (Autotaxin [1]): 0.00751 µM | Ratio IC50 (Autotaxin [2]): 9
Compound: C[C@H](CCC(=O)N1CCc2nc(NCCc3ccc(Cl)cc3)ncc2C1)[C@H]1CC[C@H]2[C@@H]3[C@@H](O)C[C@@H]4C[C@H](O)CC[C@]4(C)[C@H]3CC[C@]12C
Activity (LX-2 [3]): Non-Toxic | Activity (CCC-HPF-1 [4]): Non-Toxic | Activity (LX-2 [5]): Active | Activity (LX-2 [6]): Active | Activity (LX-2 [7]): Active | Activity (CCC-HPF-1 [8]): Active | Activity (CCC-HPF-1 [9]): Active | Activity (CCC-HPF-1 [10]): Active | Activity (LX-2 [11]): Active | Activity (LX-2 [12]): Active | Activity (LX-2 [13]): Active | Activity (CCC-HPF-1 [14]): Active | Activity (CCC-HPF-1 [15]): Active | Activity (CCC-HPF-1 [16]): Active | Activity (LX-2 [17]): Active | Activity (CCC-HPF-1 [18]): Active | Activity (LX-2 [19]): Dose-Dependent Effect | Activity (LX-2 [20]): Dose-Dependent Effect | Activity (CCC-HPF-1 [21]): Dose-Dependent Effect | Activity (CCC-HPF-1 [22]): Dose-Dependent Effect | Activity (LX-2 [23]): inactive | Activity (LX-2 [24]): inactive | Activity (CCC-HPF-1 [25]): inactive | Activity (CCC-HPF-1 [26]): inactive | Activity (LX-2 [27]): Active | Activity (CCC-HPF-1 [28]): Active
